Experiments:
Assay in all cases: relative viability (nuclei count vs DMSO), 5 days (fraction); higher = more cells survive
[1] = compound: COC1=CC=C(C=C1)CN2C=CC3=C2C=C(C=C3)C(=O)NO + CCNC(=O)c1noc(-c2cc(C(C)C)c(O)cc2O)c1-c1ccc(CN2CCOCC2)cc1 [Luminespib] (partner 0.01 µM)
Summary of the method: (§1)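 Five library-drug doses in √10 steps were combined with a fixed anchor-drug dose, or a single drug was given alone, by pin tool to lung cancer cell lines in 1536-well plates the day after seeding. Nuclei were stained and counted after 5 days. Relative viability is the nuclei count in treated wells over that in vehicle wells, taken as the median of duplicate plates.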

[2] = compound: COC1=CC=C(C=C1)CN2C=CC3=C2C=C(C=C3)C(=O)NO + O=C(c1cc(Cc2n[nH]c(=O)c3ccccc23)ccc1F)N1CCN(C(=O)C2CC2)CC1 [Olaparib] (partner 8 µM)
Summary of the method: as §1

Veliparib + Pictilisib = compound: C[C@]1(c2nc3c(C(N)=O)cccc3[nH]2)CCCN1 [Veliparib] + CS(=O)(=O)N1CCN(Cc2cc3nc(-c4cccc5[nH]ncc45)nc(N4CCOCC4)c3s2)CC1 [Pictilisib] (partner 1 µM)
Summary of the method: as §1

Veliparib + AZD7762 = compound: C[C@]1(c2nc3c(C(N)=O)cccc3[nH]2)CCCN1 [Veliparib] + NC(=O)Nc1cc(-c2cccc(F)c2)sc1C(=O)N[C@H]1CCCNC1 [AZD7762] (partner 0.2 µM)
Summary of the method: as §1

| Cell Line | relative viability ([1]; first compound 0.8 µM) | relative viability ([1]; first compound 2.53 µM) | relative viability ([1]; first compound 8 µM) | relative viability ([2]; first compound 0.08 µM) | relative viability ([2]; first compound 0.253 µM) | relative viability ([2]; first compound 0.8 µM) | relative viability ([2]; first compound 2.53 µM) | relative viability ([2]; first compound 8 µM) | relative viability (Veliparib + Pictilisib; first compound 0.02 µM) | relative viability (Veliparib + Pictilisib; first compound 0.06325 µM) | relative viability (Veliparib + Pictilisib; first compound 0.2 µM) | relative viability (Veliparib + Pictilisib; first compound 0.6325 µM) | relative viability (Veliparib + Pictilisib; first compound 2 µM) | relative viability (Veliparib + AZD7762; first compound 0.02 µM) | relative viability (Veliparib + AZD7762; first compound 0.06325 µM) | relative viability (Veliparib + AZD7762; first compound 0.2 µM) | relative viability (Veliparib + AZD7762; first compound 0.6325 µM) | relative viability (Veliparib + AZD7762; first compound 2 µM) | relative viability ([1]; first compound 0.08 µM) | relative viability ([1]; first compound 0.253 µM) |
| --- | --- | --- | --- | --- | --- | --- | --- | --- | --- | --- | --- | --- | --- | --- | --- | --- | --- | --- | --- | --- |
| NCI-H23 | 0.226 | 0.221 | 0.204 | 0.302 | 0.282 | 0.314 | 0.322 | 0.304 | 0.598 | 0.477 | 0.451 | 0.449 | 0.563 | 0.35 | 0.216 | 0.201 | 0.277 | 0.28 | – | – |
| Calu-6 | – | – | – | – | 0.544 | 0.556 | 0.602 | 0.51 | 1.02 | 0.887 | 0.892 | 0.816 | 0.85 | – | – | – | – | – | – | – |
| NCI-H1623 | 0.576 | 0.471 | 0.392 | – | – | – | – | – | – | – | – | – | – | – | – | – | – | – | 0.578 | 0.761 |
| LC-2-ad | 0.992 | 1.06 | 0.791 | 0.696 | 0.343 | 0.681 | 0.688 | 0.709 | – | 0.431 | 0.428 | 0.464 | 0.497 | 0.606 | 0.822 | 0.865 | 0.876 | 0.801 | 0.993 | 0.82 |
| HARA | 0.745 | 0.111 | 0.548 | – | 0.835 | 1.09 | 0.711 | 0.762 | 0.498 | 0.49 | 0.244 | 0.398 | 0.415 | 0.346 | – | 0.302 | 0.308 | 0.573 | – | 0.552 |
| NCI-H1993 | 1.09 | 0.826 | 0.845 | 0.699 | 1.31 | 1.25 | 1.06 | 0.885 | 0.772 | 0.826 | 0.822 | 0.807 | 0.805 | – | 0.875 | 0.934 | 0.664 | 0.607 | 0.57 | 0.812 |
| SK-MES-1 | 0.609 | 0.795 | 0.504 | 0.788 | 0.665 | 0.676 | 0.64 | 0.598 | 0.373 | 0.295 | 0.402 | 0.336 | 0.347 | – | – | – | – | – | 0.795 | 0.833 |
| NCI-H2023 | 0.724 | 0.586 | 0.553 | 0.453 | 0.475 | 0.464 | 0.433 | 0.413 | 0.196 | 0.238 | 0.251 | 0.209 | 0.224 | – | – | – | – | – | 0.67 | 0.885 |
| EMC-BAC-2 | 1.16 | 1.21 | 1.11 | 0.315 | – | 0.524 | 0.471 | 0.445 | 0.483 | 0.542 | 0.569 | 0.524 | 0.541 | 1.15 | 1.02 | 1.12 | 1.09 | 1.17 | 0.964 | 1.25 |
| H3255 | 1.03 | 0.896 | 0.589 | 0.549 | 0.482 | 0.605 | 0.579 | 0.532 | 0.476 | 0.514 | 0.48 | 0.458 | 0.499 | 1 | 0.893 | 0.816 | 0.756 | 0.857 | 0.846 | 0.789 |
| SK-LU-1 | 0.183 | 0.191 | 0.185 | 0.436 | 0.443 | 0.627 | 0.449 | 0.422 | 0.624 | 0.573 | 0.483 | 0.585 | 0.536 | – | – | – | – | – | 0.184 | 0.197 |
| BEN | 0.23 | 0.354 | 0.218 | 1.09 | 1.03 | 0.95 | 0.913 | 0.924 | 0.517 | 0.572 | 0.594 | 0.577 | 0.628 | 0.599 | 0.644 | 0.664 | 0.793 | 0.625 | 0.427 | 0.286 |
| NCI-H727 | 0.311 | 0.436 | 0.323 | 0.68 | 0.709 | 0.755 | 0.649 | 0.622 | 0.195 | 0.33 | 0.433 | 0.296 | 0.431 | 0.627 | 0.495 | 0.784 | 0.681 | 0.603 | 0.345 | 0.406 |
| NCI-H1755 | 0.499 | 0.508 | 0.356 | 0.77 | 0.89 | 0.831 | 0.955 | 0.867 | 0.403 | 0.415 | 0.479 | 0.434 | 0.432 | 0.479 | 0.543 | 0.5 | 0.443 | 0.444 | 0.398 | 0.312 |
| NCI-H1944 | 0.791 | 0.748 | 0.728 | – | 0.425 | 0.422 | 0.423 | 0.374 | 0.344 | 0.311 | 0.338 | 0.323 | 0.351 | 0.521 | 0.592 | 0.504 | 0.511 | 0.529 | – | 0.788 |
| NCI-H322M | 0.909 | 0.841 | 0.664 | – | – | 0.805 | 0.845 | 0.621 | 0.496 | 0.459 | 0.573 | 0.525 | 0.321 | – | 0.629 | 0.573 | 0.744 | 0.611 | – | 0.867 |
| NCI-H647 | 0.226 | 0.185 | 0.111 | 0.557 | 0.537 | 0.422 | 0.495 | 0.547 | 0.347 | 0.368 | 0.436 | 0.447 | 0.265 | 0.53 | 0.415 | 0.429 | 0.552 | 0.394 | 0.23 | 0.216 |
| LXF-289 | 0.709 | 0.714 | 0.632 | – | 1.05 | 1.11 | 1.11 | 1.11 | 0.78 | 0.778 | 0.768 | 0.746 | 0.755 | 1.06 | 1.06 | 1.12 | 1.09 | 1.14 | – | 0.732 |
| HCC-827 | 0.461 | 0.51 | 0.652 | 0.573 | 0.697 | 0.655 | 0.68 | 0.531 | 0.936 | 0.957 | 1.01 | 0.984 | 1.06 | 0.26 | 0.335 | 0.2 | 0.236 | 0.222 | 0.537 | 0.58 |

Source: the supplement of paper PMC10307832
